US10683520B2, “Polycarboxylic acid extraction” (PURAC BIOCHEM BV, priority 2011, dated 2020)

Experiment: Forward extraction of acid from salt-containing aqueous feed into methyl-isobutylketone and back extraction into water
Assay type: physicochemical
Conditions: 20° C.; for DBE (distribution ratio in back extraction, [acid]organic/[acid]water): MIBK organic phase / pure water; for [acid] aqueous fraction after back extraction: feed with 15 wt. % MgCl2 (acid in feed per Table 1.1), back extraction into pure water; for [acid] aqueous fraction after back extraction / DFE (distribution ratio in forward extraction, [acid]organic/[acid]water) / concentration ratio (acid concentration in product / acid concentration in feed): MIBK; for DFE (distribution ratio in forward extraction, [acid]organic/[acid]water) / concentration ratio (acid concentration in product / acid concentration in feed): feed with 15 wt. % MgCl2
Excerpt: Forward extraction and back extraction as used in the method of the invention are based on the difference in solubility of the carboxylic acid in water and the organic solvent at different temperatures. The solubility of a compound in one solvent relative to another solvent can be expressed in terms of the distribution ratio (DR). […] The distribution ratio may be defined as the ratio of the carboxylic acid concentration dissolved in the organic phase ([carboxylic acid]organic) over the concentration of the carboxylic acid dissolved in water ([carboxylic acid]water), provided that the two phases are in equilibrium with each other: DR=[carboxylic acid]organic/[carboxylic acid]water (1)
The general procedure is set up to mimic a continuous extraction process.
A feed solution was prepared comprising acid and salt in the amounts stipulated in the table. The solutions were stirred overnight.
1000 g of this feed solution was mixed with approximately 100 g of methyl-isobutylketone as solvent and stirred at 20° C. for minimum of 15 minutes. The mixture was transferred to a separation funnel where phases were separated. Samples of both phases were taken for analysis. Then approximately 100 g of organic phase was mixed with 10 g of pure water and stirred for minimum of 15 min at 20° C. Subsequently the whole mixture is again transferred to the separation funnel, phases are left to separate and samples of both phases are taken. Samples were analysed on acid content.
These tables also give the concentration ratio, which is the ratio between the acid concentration in the product and the acid concentration in the feed.
The composition of the starting solution and the acid concentration in the products is in Table 2.1 below.

Row | Compound | DBE (distribution ratio in back extraction, [acid]organic/[acid]water) | [acid] aqueous fraction after back extraction | DFE (distribution ratio in forward extraction, [acid]organic/[acid]water) | concentration ratio (acid concentration in product / acid concentration in feed)
1 | O=C(O)/C=C/C(=O)O [Fumaric acid, fumaric acid] | 0.24 | 0.21 wt. % | 1.75 | 1.8
2 | C=C(CC(=O)O)C(=O)O [Itaconic acid, itaconic acid] | 1.07 | 2.8 wt. % | 2.83 | 1.9
